Tests used:
[1] = Inhibition of Ikr tail current in rabbit ventricular myocytes; assay type: cell-based; settings: Oryctolagus cuniculus, Ventricular myocyte
HEK293 [2] = experiment: Downregulation of human ERG expression in HEK293 cells assessed as change in intensity of 135 kDa band at 1 to 10 uM after 24 hrs by Western blot analysis; assay type: ADME, cell-based; settings: hek293, 24 h
HEK293 [3] = experiment: Downregulation of human ERG mRNA expression in HEK293 cells at 30 uM after 24 hrs by qRT-PCR analysis; assay type: ADME, cell-based; settings: hek293, 24 h
IKs (KCNE1) = IKs (KCNE1) (Cavia porcellus, UniProt Q60409); experiment: Inhibition of Iks tail current in guinea pig ventricular myocytes at 100 uM; assay type: cell-based, Ventricular myocyte
HEK293 [4] = experiment: Reduction in human ERG-tail density expressed in HEK293 cells at 30 uM after 24 hrs by densitometric analysis; assay type: ADME, cell-based; settings: hek293, 24 h
HEK293 [5] = experiment: Downregulation of human ERG mRNA expression in HEK293 cells at 30 uM after 24 hrs by RT-PCR analysis; assay type: ADME, cell-based; settings: hek293, 24 h
HEK293 [6] = experiment: Downregulation of human ERG expression in HEK293 cells assessed as decrease in intensity of 155 kDa band at 30 uM after 24 hrs by Western blot analysis; assay type: ADME, cell-based; settings: hek293, 24 h
IKr = experiment: Inhibition of Ikr tail current in guinea pig ventricular myocytes at 10 uM; assay type: cell-based, Cavia porcellus, Ventricular myocyte
[7] = Cmax in rabbit at 30 uM, iv administered as bolus dose; assay type: ADME, organism-based, Oryctolagus cuniculus; parameters: dose 30 uM, route intravenous; settings: in vivo
[8] = target: Potassium voltage-gated channel subfamily E member 1 (Oryctolagus cuniculus, UniProt Q28705); experiment: Inhibition of Iks tail current in rabbit ventricular myocytes; assay type: cell-based, Ventricular myocyte
HEK293 [9] = experiment: Downregulation of human ERG expression in HEK293 cells assessed as change in intensity of 155 kDa band at 1 to 10 uM after 24 hrs by Western blot analysis; assay type: ADME, cell-based; settings: hek293, 24 h
HEK293 [10] = experiment: Downregulation of human ERG expression in HEK293 cells assessed as decrease in intensity of 135 kDa band at 30 uM after 24 hrs by Western blot analysis; assay type: ADME, cell-based; settings: hek293, 24 h
[11] = Cmax in dog at 30 uM, iv administered as bolus dose; assay type: ADME, organism-based, Canis lupus familiaris; parameters: dose 30 uM, route intravenous; settings: in vivo

Potassium voltage-gated channel subfamily E member 1, sequence (Q28705 whole entry): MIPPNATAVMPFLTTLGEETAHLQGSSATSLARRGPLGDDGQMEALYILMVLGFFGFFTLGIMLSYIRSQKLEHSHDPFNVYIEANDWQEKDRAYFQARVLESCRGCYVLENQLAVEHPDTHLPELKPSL
IKs (KCNE1), sequence (Q60409 whole entry): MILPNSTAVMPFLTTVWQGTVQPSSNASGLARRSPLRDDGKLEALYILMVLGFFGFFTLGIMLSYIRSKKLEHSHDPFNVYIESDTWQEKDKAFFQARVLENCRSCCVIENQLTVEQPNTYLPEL

With `COc1cc2c(cc1O)[C@@H](Cc1ccc(O)c(Oc3ccc(C[C@@H]4c5cc(OC)c(OC)cc5CCN4C)cc3)c1)N(C)CC2` [DARUISOLINE] the IC50 [1] was 19.9 µM, the Activity (HEK293 [2]) was “Non-toxic” and the Activity (HEK293 [3]) was “Toxic”. For the same compound, the inhibition at 100 µM (IKs (KCNE1)) was 50%, the Activity (HEK293 [4]) was “Toxic” and the Activity (HEK293 [5]) was “Toxic”. The Activity (HEK293 [6]) was “Toxic”, the inhibition at 10 µM (IKr) was 39% and the Cmax at 30 µM [7] was 1700 nM. For the same compound, the IC50 [8] was 52.5 µM, the Activity (HEK293 [9]) was “Non-toxic” and the Activity (HEK293 [10]) was “Toxic”. The Cmax at 30 µM [11] was 1700 nM.

From ChEMBL document CHEMBL2216747, “Effect of daurisoline on HERG channel electrophysiological function and protein expression” (J Nat Prod, 2012)
